Entries after “also recorded” stand apart in the source; their conditions may differ. Where two headings read alike, the source gives them in different places.
Assays:
[1] = test system: murine hepatitis virus (MHV); experiment: microbe, parasite or virus in culture; type: cell-based
[2] = test system: SARS-CoV-2; experiment: microbe, parasite or virus in culture; type: cell-based; conditions: Severe acute respiratory syndrome coronavirus 2, A549-ACE2
[3] = Cytotoxicity in Caco-2 cells (CC50); type: cell-based; conditions: human
[4] = test system: HCoV 229E; experiment: HCoV 229E antiviral assay in Huh-7 cells; type: cell-based, human coronavirus 229E; conditions: 5 μM
[5] = test system: SARS-CoV-2; parameters: species or system K18-hACE2 mice; conditions: mouse, in vivo
[6] = in vivo; cited from earlier work
[7] = test system: SARS-CoV-2 (isolate USA WA1/2020)
[8] = test system: VEGF; conditions: by day 28, severe COVID-19; cited from earlier work
VEGF, sequence (P15692 207-311 limits assumed): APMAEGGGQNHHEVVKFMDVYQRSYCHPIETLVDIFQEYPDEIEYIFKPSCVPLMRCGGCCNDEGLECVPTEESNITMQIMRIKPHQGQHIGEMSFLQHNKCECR

Work on `CN(C)C/C=C/C(=O)Nc1cc2c(Nc3ccc(F)c(Cl)c3)ncnc2cc1O[C@H]1CCOC1` [Afatinib] yielded an inhibition at 10 µM ([1]; Murine coronavirus, DBT cells) of 98%.
Work on `CCc1cc2c(cc1N1CCC(N3CCOCC3)CC1)C(C)(C)c1[nH]c3cc(C#N)ccc3c1C2=O` [Alectinib] yielded an inhibition at 10 µM ([1]; Murine coronavirus, DBT cells) of 62%.
Molecule `COc1cc(N2CCC(N3CCN(C)CC3)CC2)ccc1Nc1ncc(Cl)c(Nc2ccccc2P(C)(C)=O)n1` [Brigatinib] has an inhibition at 10 µM ([1]; Murine coronavirus, DBT cells) of 39%.
For `COc1cc2nccc(Oc3ccc(NC(=O)C4(C(=O)Nc5ccc(F)cc5)CC4)cc3)c2cc1OC` [Cabozantinib], the inhibition at 10 µM ([1]; Murine coronavirus, DBT cells) was 61%.
For `CCS(=O)(=O)N1CCN(c2ccc(Nc3ncc(C(N)=O)c(NC4CC4)n3)cc2)CC1` [Cerdulatinib], the inhibition at 10 µM ([1]; Murine coronavirus, DBT cells) was 78%.
`Cc1cc(Nc2ncc(Cl)c(Nc3ccccc3S(=O)(=O)C(C)C)n2)c(OC(C)C)cc1C1CCNCC1` [Ceritinib] gave an inhibition at 10 µM ([1]; Murine coronavirus, DBT cells) of 94%.
With `O=C(c1ccc(F)c(F)c1Nc1ccc(I)cc1F)N1CC(O)([C@@H]2CCCCN2)C1` [Cobimetinib] the inhibition at 10 µM ([1]; Murine coronavirus, DBT cells) was 82%.
For `CC(C)(C)c1nc(-c2cccc(NS(=O)(=O)c3c(F)cccc3F)c2F)c(-c2ccnc(N)n2)s1` [Dabrafenib], the inhibition at 10 µM ([1]; Murine coronavirus, DBT cells) was -12%.
With `Cc1nc(Nc2ncc(C(=O)Nc3c(C)cccc3Cl)s2)cc(N2CCN(CCO)CC2)n1` [Dasatinib] the inhibition at 10 µM ([1]; Murine coronavirus, DBT cells) was 65%.
With `CNC(=O)c1ccc(Nc2ncc(C(F)(F)F)c(NCc3nccnc3N(C)S(C)(=O)=O)n2)cc1` [Defactinib] the inhibition at 10 µM ([1]; Murine coronavirus, DBT cells) was 36%.
Molecule `CN1CCN(c2ccc(C(=O)Nc3n[nH]c4ccc(Cc5cc(F)cc(F)c5)cc34)c(NC3CCOCC3)c2)CC1` [Entrectinib] has an IC50 [2] of 1970 nM, a CC50 [3] of 3600 nM and an inhibition at 10 µM ([1]; Murine coronavirus, DBT cells) of 97%. The “Reduction of HCoV-229E titer” value [4] was 2.7 logTCID50/mL.
With `C#Cc1cccc(Nc2ncnc3cc(OCCOC)c(OCCOC)cc23)c1` [Erlotinib] the inhibition at 10 µM ([1]; Murine coronavirus, DBT cells) was 32%.
Molecule `CO[C@H]1C[C@@H]2CC[C@@H](C)[C@@](O)(O2)C(=O)C(=O)N2CCCC[C@H]2C(=O)O[C@H]([C@H](C)C[C@@H]2CC[C@@H](OCCO)[C@H](OC)C2)CC(=O)[C@H](C)/C=C(\C)[C@@H](O)[C@@H](OC)C(=O)[C@H](C)C[C@H](C)/C=C/C=C/C=C/1C` [Everolimus] has an inhibition at 10 µM ([1]; Murine coronavirus, DBT cells) of 46%.
With `Cc1ncc(NC(=O)c2ccc(CN3CCN(C)CC3)c(C(F)(F)F)c2)cc1Nc1nccc(-c2cccnc2)n1` [Flumatinib] the inhibition at 10 µM ([1]; Murine coronavirus, DBT cells) was 83%.
Work on `Cc1cccc(-c2nn3c(c2-c2ccnc4ccc(C(N)=O)cc24)CCC3)n1` [Galunisertib] yielded an inhibition at 10 µM ([1]; Murine coronavirus, DBT cells) of 26%.
In the case of `C=CC(=O)N1CCC[C@@H](n2nc(-c3ccc(Oc4ccccc4)cc3)c3c(N)ncnc32)C1` [Ibrutinib], the inhibition at 10 µM ([1]; Murine coronavirus, DBT cells) is reported as -69%.
Molecule `CC[C@H](Nc1ncnc2nc[nH]c12)c1nc2cccc(F)c2c(=O)n1-c1ccccc1` [Idelalisib] has an inhibition at 10 µM ([1]; Murine coronavirus, DBT cells) of 17%.
`Cc1ccc(NC(=O)c2ccc(CN3CCN(C)CC3)cc2)cc1Nc1nccc(-c2cccnc2)n1` [Imatinib] showed an inhibition at 10 µM ([1]; Murine coronavirus, DBT cells) of 81%.
Work on `CS(=O)(=O)CCNCc1ccc(-c2ccc3ncnc(Nc4ccc(OCc5cccc(F)c5)c(Cl)c4)c3c2)o1` [Lapatinib] yielded an inhibition at 10 µM ([1]; Murine coronavirus, DBT cells) of 88%.
For `C[C@]1(O)C[C@@H](c2nc(-c3ccc4ccc(-c5ccccc5)nc4c3)c3c(N)nccn32)C1` [Linsitinib], the inhibition at 10 µM ([1]; Murine coronavirus, DBT cells) was 46%.
Molecule `COc1cc2nccc(Oc3ccc(NC(=O)NC4CC4)c(Cl)c3)c2cc1C(N)=O` [Lonvatinib] has an inhibition at 10 µM ([1]; Murine coronavirus, DBT cells) of -12%.
Work on `Cc1cn(-c2cc(NC(=O)c3ccc(C)c(Nc4nccc(-c5cccnc5)n4)c3)cc(C(F)(F)F)c2)cn1` [Nilotinib] yielded an inhibition at 10 µM ([1]; Murine coronavirus, DBT cells) of 66%.
`COC(=O)c1ccc2c(c1)NC(=O)/C2=C(\Nc1ccc(N(C)C(=O)CN2CCN(C)CC2)cc1)c1ccccc1` [Nintedanib] showed an inhibition at 10 µM ([1]; Murine coronavirus, DBT cells) of 95%.
`C=CC(=O)Nc1cc(Nc2nccc(-c3cn(C)c4ccccc34)n2)c(OC)cc1N(C)CCN(C)C` [Osimertinib] gave an inhibition at 10 µM ([1]; Murine coronavirus, DBT cells) of 98%.
Molecule `CC(=O)c1c(C)c2cnc(Nc3ccc(N4CCNCC4)cn3)nc2n(C2CCCC2)c1=O` [Palbociclib] has an inhibition at 10 µM ([1]; Murine coronavirus, DBT cells) of 5%.
For `Cc1ccc(Nc2nccc(N(C)c3ccc4c(C)n(C)nc4c3)n2)cc1S(N)(=O)=O` [Pazopanib], the inhibition at 10 µM ([1]; Murine coronavirus, DBT cells) was 20%.
With `Cc1ccc(C(=O)Nc2ccc(CN3CCN(C)CC3)c(C(F)(F)F)c2)cc1C#Cc1cnc2cccnn12` [Ponatinib] the inhibition at 10 µM ([1]; Murine coronavirus, DBT cells) was 98%.
In the case of `CNC(=O)c1cc(Oc2ccc(NC(=O)Nc3ccc(Cl)c(C(F)(F)F)c3)c(F)c2)ccn1` [Regorafenib], the inhibition at 10 µM ([1]; Murine coronavirus, DBT cells) is reported as 65%.
Molecule `CN(C)C(=O)c1cc2cnc(Nc3ccc(N4CCNCC4)cn3)nc2n1C1CCCC1` [Ribociclib] has an inhibition at 10 µM ([1]; Murine coronavirus, DBT cells) of -4%.
`CNCc1ccc(-c2[nH]c3cc(F)cc4c3c2CCNC4=O)cc1` [Rucaparib] gave an inhibition at 10 µM ([1]; Murine coronavirus, DBT cells) of -48%.
`N#CC[C@H](C1CCCC1)n1cc(-c2ncnc3[nH]ccc23)cn1` [Ruxolitinib] showed an inhibition at 10 µM ([1]; Murine coronavirus, DBT cells) of -46%.
For `CNC(=O)c1cc(Oc2ccc(NC(=O)Nc3ccc(Cl)c(C(F)(F)F)c3)cc2)ccn1` [Sorafenib], the inhibition at 10 µM ([1]; Murine coronavirus, DBT cells) was 74%.
With `CCN(CC)CCNC(=O)c1c(C)[nH]c(/C=C2\C(=O)Nc3ccc(F)cc32)c1C` [Sunitinib] the inhibition at 10 µM ([1]; Murine coronavirus, DBT cells) was 96%.
`CO[C@H]1C[C@@H]2CC[C@@H](C)[C@@](O)(O2)C(=O)C(=O)N2CCCC[C@H]2C(=O)O[C@H]([C@H](C)C[C@@H]2CC[C@@H](OC(=O)C(C)(CO)CO)[C@H](OC)C2)CC(=O)[C@H](C)/C=C(\C)[C@@H](O)[C@@H](OC)C(=O)[C@H](C)C[C@H](C)/C=C/C=C/C=C/1C` [Temsirolimus] gave an inhibition at 10 µM ([1]; Murine coronavirus, DBT cells) of 4%.
Work on `COc1cc2nccc(Oc3ccc(NC(=O)Nc4cc(C)on4)c(Cl)c3)c2cc1OC` [Tivozanib] yielded an inhibition at 10 µM ([1]; Murine coronavirus, DBT cells) of 29%.
Work on `C[C@@H]1CCN(C(=O)CC#N)C[C@@H]1N(C)c1ncnc2[nH]ccc12` [Tofacitinib] yielded an inhibition at 10 µM ([1]; Murine coronavirus, DBT cells) of -7%.
Molecule `CC(=O)Nc1cccc(-n2c(=O)n(C3CC3)c(=O)c3c(Nc4ccc(I)cc4F)n(C)c(=O)c(C)c32)c1` [Trametinib] has an inhibition at 10 µM ([1]; Murine coronavirus, DBT cells) of -40%.
`COc1cc2c(Nc3ccc(Br)cc3F)ncnc2cc1OCC1CCN(C)CC1` [Vandetanib] showed an IC50 [2] of 790 nM, a CC50 [3] of 4100 nM and an inhibition at 10 µM ([1]; Murine coronavirus, DBT cells) of 97%. For the same molecule, the IC50 ([1]; Murine coronavirus, DBT cells, FIG. 5, read-out: IC50 against MHV) was 1600 nM, the “Reduction of HCoV-229E titer” value [4] was greater than 3 and the “Lung CCL2 level” value [5] was “significantly reduced; also recorded: decreased”. For the same molecule, the “Lung CCL3 level” value [5] was “significantly reduced; also recorded: decreased”, the “Lung CCL4 level” value [5] was “reduced; also recorded: decreased” and the “Lung IL-6 level” value [5] was “statistically significantly reduced”. The “Lung IL-10 level” value [5] was “statistically significantly reduced”, the “Lung TNF-α level” value [5] was “statistically significantly reduced” and the “Lung pathology / inflammatory cell infiltrates” value [5] was “mitigated inflammatory cell infiltrates”. The “Lung viral load (viral RNA, RT-PCR)” value [5] was “did not reduce”, the “Lung IFN-1β level” value ([5]; listed as vandetanib) was “restored the levels; also recorded: rescued” and the “Lung IL-6 level” value ([5]; listed as vandetanib) was “reduces”. For the same molecule, the “Lung IL-10 level” value ([5]; listed as vandetanib) was “reduces”, the “Lung TNF-α level” value ([5]; listed as vandetanib) was “reduces” and the “Lung pathology / inflammatory cell infiltrates” value ([5]; listed as vandetanib) was “clear protective effect; also recorded: significant treatment effect with mild infiltration”. For the same molecule, the “Lung viral load (viral RNA, RT-PCR)” value ([5]; listed as vandetanib) was “no significant reduction; also recorded: not observed”, the “Absorption from the gut” value [6] was “well absorbed” and the Average half-life [6] was 19 days. For the same molecule, the “Excreted via the feces” value [6] was 44%, the “Excreted via the urine” value [6] was 25% and the Protein-bound [6] was 92-94%. The Terminal excretion half-life [6] was 20 days and the “Time to peak blood plasma concentrations” value [6] was 4 to 10 h.
For `CCCS(=O)(=O)Nc1ccc(F)c(C(=O)c2c[nH]c3ncc(-c4ccc(Cl)cc4)cc23)c1F` [Vemourafenib], the inhibition at 10 µM ([1]; Murine coronavirus, DBT cells) was -3%.
For `CCC(CC)COC(=O)[C@H](C)N[P@](=O)(OC[C@H]1O[C@@](C#N)(c2ccc3c(N)ncnn23)[C@H](O)[C@@H]1O)Oc1ccccc1` [remdesivir], the IC50 [2] was 110 nM.
With Alisertib the “% Inhibition MHV-DBT cells 10 μM” value [1] was 19%.
In the case of Crizotinib, the “% Inhibition MHV-DBT cells 10 μM” value [1] is reported as 96% and the “Calu-3 result (toxicity)” value [7] is reported as “toxic”.
For bevacizumab, the Patients discharged [8] is given as 65%, the “Patients with improvement in oxygen-support status” value [8] is given as 92% and the “Patients with worsened oxygen-support status or died” value [8] is given as “none”.
